The NIST ThermoML archive (doi:10.1016/j.fluid.2005.12.029)
± gives the expanded uncertainty stated by the source.

Assay: excess molar enthalpy (molar enthalpy of mixing); xn = mol fraction of the nth substance listed
Conditions: 308.15 K, 12400 kPa, Fluid (supercritical or subcritical phases)

CCCCCC [hexane] + CO
Conditions	excess molar enthalpy [kcal/mol]
x2 = 0.032	0.0609 ± 0.00215
x2 = 0.062	0.081 ± 0.00239
x2 = 0.118	0.0966 ± 0.00263
x2 = 0.145	0.113 ± 0.00311
x2 = 0.17	0.117 ± 0.00311
x2 = 0.218	0.125 ± 0.00335
x2 = 0.249	0.129 ± 0.00335
x2 = 0.803	0.113 ± 0.00311
x2 = 0.828	0.107 ± 0.00287
x2 = 0.851	0.0978 ± 0.00287
x2 = 0.872	0.0877 ± 0.00263
x2 = 0.903	0.0727 ± 0.00215
x2 = 0.928	0.0593 ± 0.00215
x2 = 0.959	0.0347 ± 0.00191

CCCCCCCCO [octan-1-ol] + CCCCCC
Conditions	excess molar enthalpy [kcal/mol]
x1 = 0.033	0.0741 ± 0.00239
x1 = 0.05	0.086 ± 0.00239
x1 = 0.101	0.102 ± 0.00287
x1 = 0.153	0.111 ± 0.00287
x1 = 0.206	0.117 ± 0.00311
x1 = 0.3	0.122 ± 0.00311
x1 = 0.397	0.12 ± 0.00311
x1 = 0.447	0.115 ± 0.00311
x1 = 0.503	0.109 ± 0.00287
x1 = 0.602	0.0949 ± 0.00263
x1 = 0.653	0.0822 ± 0.00239
x1 = 0.696	0.0715 ± 0.00191
x1 = 0.749	0.059 ± 0.00167
x1 = 0.789	0.0483 ± 0.00143
x1 = 0.858	0.0313 ± 0.0012
x1 = 0.904	0.0163 ± 0.000956
x1 = 0.928	0.0148 ± 0.00717
x1 = 0.952	0.00526 ± 0.000956
